Data: article PMC10745061 (Marine Drugs, 2023)
Like-named read-outs stand apart in the source and are kept apart here. Where a SMILES comes first, the peptide text is derived from it. Bridges are numbered along the chain shown (N, C = ends).

Tests used:
Escherichia coli ML-35p = conditions: salt-containing MHB, FBS at different concentrations up to 15%
From the text: The results were expressed as the median values determined on the basis of at least three independent experiments performed in triplicate.

RP-HPLC retention time = type: physicochemical; conditions: semi-preparative RP-HPLC, C18 column, linear gradient 5 to 80% (v/v) acetonitrile in water with 0.1% TFA within 50 min
Procedure: Figure 2 Structure analysis of the novel BRICHOS-related peptides HfBRI-25 and HfBRI-28. (A) Characteristics of the obtained peptides. ^1 Mean Kyte–Doolittle hydrophobicity index (GRAVY) was calculated using the Expasy ProtParam tool. The maximum and minimum values of this index are +4.5 and −4.5 for poly-Ile and poly-Arg sequences, respectively. ^2 Percentage of hydrophobic amino acids was calculated using the APD3 database. ^3 Retention times were measured using semi-preparative reversed-phase high-performance liquid chromatography (RP-HPLC) on a C18 column with a linear gradient from 5 to 80% (v/v) acetonitrile in water containing 0.1% trifluoroacetic acid (TFA) within 50 min. ^4 Molecular masses were calculated by considering the presence of four Cys residues forming two disulfide bonds in the case of HfBRI-25. ^5 Molecular masses were determined experimentally using MALDI-TOF mass spectrometry. (B) Spatial structures of HfBRI-25 and HfBRI-28 were modeled using the AlphaFold algorithm (ColabFold server). The top-rated models, according to predicted local distance difference test (pLDDT) scores, were visualized by the PyMOL software. (C) The CD-spectra of the peptides in water or in the presence of 30 mM DPC micelles. (D) The CONTINLL program was used for CD data analysis. […]

E. coli MDR CI 1057 = conditions: 37 °C
Procedure: Resistance induction experiments were performed using the previously described method. Briefly, on day one, the overnight culture of wild-type bacteria was diluted with the 2× MH broth supplemented with 1.8% NaCl to reach a final cell concentration of 10^6 CFU/mL.

[1] = 25% human serum in PBS pH 7.4, 37 °C; for a/b (%), ratio of the peptide forms in serum: RP-HPLC, ratio estimated from MALDI-TOF MS, two independent experiments
E. coli ATCC 25922 = conditions: BALB/c mice, n = 5, i.p. infection 10^6 CFU with 2.5% mucin; 10 mg/kg i.p. at 1 h and 4 h after infection; 7 days
E. coli = type: cell-based, Escherichia coli; conditions: panel incl. clinically isolated UPEC, MDR and XDR strains; regardless of resistance profile, biofilm production, presence of serum
Procedure: The clinical isolates were collected and provided by Sechenov First Moscow State Medical University hospital and the State Collection of Pathogenic Microorganisms “Obolensk” (SRCAMB collection). The resistant to conventional antibiotics strains were defined as extensively drug resistant (XDR), according to [47]. Bacterial test cultures were grown in a Mueller–Hinton broth (MHB, Sigma) at 37 °C to mid-log phase and then diluted with the 2× MH medium supplemented with 1.8% NaCl (and, optionally, with fetal bovine serum (FBS, Gibco) at different concentrations) or without salt so that to reach a final cell concentration of 10^6 CFU/mL. Moreover, 50 μL of the obtained bacterial suspension were added to aliquots of 50 μL of the peptide solutions serially diluted with sterilized 0.1% bovine serum albumin (BSA) in 96-well flat-bottom polystyrene microplates (Eppendorf #0030730011). After incubation for 24 h at 37 °C and 950 rpm on the plate thermoshaker (Biosan), minimum inhibitory concentrations (MIC) were determined as the lowest peptide concentrations that prevented growth of a test microorganism observed as visible turbidity. […] In the case of Mycobacterium smegmatis, MICs were determined in the Middlebrook 7H9 medium (HiMedia). The results were expressed as the median values determined on the basis of at least three independent experiments performed in triplicate.

CC[C@H](C)[C@@H]1NC(=O)[C@H](Cc2c[nH]c3ccccc23)NC(=O)[C@H](C(C)C)NC(=O)[C@@H]2CSSC[C@H](NC(=O)[C@H](CCCNC(=N)N)NC(=O)[C@H](CCCNC(=N)N)NC(=O)[C@H](C(C)C)NC(=O)[C@H](CCCNC(=N)N)NC(=O)[C@H](CCCNC(=N)N)NC(=O)CNC(=O)[C@H](CC(N)=O)NC(=O)[C@H](C(C)C)NC(=O)[C@H](CO)NC1=O)C(=O)N[C@@H](Cc1c[nH]c3ccccc13)C(=O)NCC(=O)N[C@@H](CO)C(=O)NCC(=O)N[C@H](C(=O)O)CSSC[C@H](NC(=O)CNC(=O)[C@H](CCCNC(=N)N)NC(=O)[C@@H]1CCCN1C(=O)[C@@H](N)CO)C(=O)N[C@@H](Cc1ccccc1)C(=O)N2 [HfBRI-25] (H-SPRGCFCVWISVNGRRVRRCWGSGC-OH; disulfide 5-25, 7-20; N-terminus and C-terminus assumed)
MIC in the presence of FBS at different concentrations (Escherichia coli ML-35p): 1 µM | RP-HPLC Retention Time (RP-HPLC retention time): 27.5 min | Change of MIC value after resistance selection (E. coli MDR CI 1057; 21 passages (days) in the presence of the agent, MHB + 0.9% NaCl): two-fold | Initial MIC value before resistance selection (E. coli MDR CI 1057; Mueller–Hinton broth supplemented with 0.9% NaCl): 1 µM | Part of the peptide converted into 23-residue form b ([1]; after 1 h of incubation): More than half | Two active forms (a/b) remained intact in serum ([1]; after 24 h, RP-HPLC peak area, mean of two independent experiments): more than 80% | a/b (%), ratio of the peptide forms in serum ([1]; time 1 h): 39% | a/b (%), ratio of the peptide forms in serum ([1]; time 3 h): 6% | a/b (%), ratio of the peptide forms in serum ([1]; time 24 h): 0% | Survival / therapeutic efficacy (E. coli ATCC 25922): 100% | MIC value against all tested E. coli strains (E. coli): 1 to 2 µM
